# Literature values in patent publication US20110105450A1, “OPHTHALMIC FORMULATIONS OF FLUTICASONE AND METHODS OF USE” (Aciex Therapeutics, Inc., priority 2009, published 2011).
structure (smiles),measurement,setting,value
"CCC(=O)O[C@]1(C(=O)SCF)[C@H](C)C[C@H]2[C@@H]3C[C@H](F)C4=CC(=O)C=C[C@]4(C)[C@@]3(F)[C@@H](O)C[C@@]21C [Fluticasone propionate, S-fluoromethyl-6-α-9-difluoro-11-β-hydroxy-16-α-methyl-3-oxoandrosta-1,4-diene-17-β-carbothioate, 17-propionate]",solubility in 95% ethanol,95% ethanol,slightly soluble
same,solubility in dimethyl sulfoxide,dimethyl sulfoxide,freely soluble
same,solubility in dimethyl-formamide,dimethyl-formamide,freely soluble
same,solubility in methanol,methanol,slightly soluble
same,solubility in water,water,0.14 µg/mL
